This passage reports Activity and inhibition results from ChEMBL document CHEMBL4417636, “Small molecule inhibitors of pendrin ion exchange and pharmaceutical compositions” (2017).

The subject of assay [1] is Mus musculus. Kind of assay: Potentiation of 20 mg/kg, ip furosemide-induced acute diuretic action in CD1 mouse assessed as effect on urine pH at 10 mg/kg, ip relative to control. It counts as functional, organism-based.
For the next assay, the target named is T1, Pendrin (Mus musculus) (UniProt Q9R155).
T1 sequence (whole entry): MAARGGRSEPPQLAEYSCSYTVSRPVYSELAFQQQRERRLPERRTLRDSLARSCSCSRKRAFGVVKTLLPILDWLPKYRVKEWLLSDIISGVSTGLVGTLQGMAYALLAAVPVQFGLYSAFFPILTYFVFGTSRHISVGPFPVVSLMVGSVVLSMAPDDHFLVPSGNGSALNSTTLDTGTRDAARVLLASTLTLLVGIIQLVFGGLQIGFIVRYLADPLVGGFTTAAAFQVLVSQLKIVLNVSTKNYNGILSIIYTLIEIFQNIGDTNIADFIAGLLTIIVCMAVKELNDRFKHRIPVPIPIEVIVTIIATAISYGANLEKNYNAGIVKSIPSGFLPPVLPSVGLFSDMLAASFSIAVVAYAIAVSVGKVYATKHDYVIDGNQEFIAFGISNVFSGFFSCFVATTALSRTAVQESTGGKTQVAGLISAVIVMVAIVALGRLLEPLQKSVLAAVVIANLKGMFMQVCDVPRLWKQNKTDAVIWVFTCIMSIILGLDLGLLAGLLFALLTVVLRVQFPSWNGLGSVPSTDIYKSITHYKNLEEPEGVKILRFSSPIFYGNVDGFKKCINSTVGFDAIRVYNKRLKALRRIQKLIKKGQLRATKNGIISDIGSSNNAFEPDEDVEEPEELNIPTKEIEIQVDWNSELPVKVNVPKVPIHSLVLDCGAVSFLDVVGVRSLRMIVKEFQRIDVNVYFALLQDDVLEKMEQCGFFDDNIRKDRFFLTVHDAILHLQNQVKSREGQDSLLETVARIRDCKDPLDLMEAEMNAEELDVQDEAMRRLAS
Put plainly: Inhibition of mouse pendrin expressed in FRT cells co-expressing YFP-HIF assessed as reduction in pendrin-mediated exchange of Cl(-) with NO3(-) by pH-sensitive fluorescent probe BCECF-AM based fluorescence assay relative to control. Type of assay: cell-based.

For assay [2], the species on record is Homo sapiens. Kind of assay: Inhibition of CaCC in human bronchial epithelial cells assessed as effect on short-circuit current at 25 uM pre-incubated for 30 mins.
The next assay has as its target T2, Pendrin (Homo sapiens) (UniProt O43511).
T2 sequence (whole entry): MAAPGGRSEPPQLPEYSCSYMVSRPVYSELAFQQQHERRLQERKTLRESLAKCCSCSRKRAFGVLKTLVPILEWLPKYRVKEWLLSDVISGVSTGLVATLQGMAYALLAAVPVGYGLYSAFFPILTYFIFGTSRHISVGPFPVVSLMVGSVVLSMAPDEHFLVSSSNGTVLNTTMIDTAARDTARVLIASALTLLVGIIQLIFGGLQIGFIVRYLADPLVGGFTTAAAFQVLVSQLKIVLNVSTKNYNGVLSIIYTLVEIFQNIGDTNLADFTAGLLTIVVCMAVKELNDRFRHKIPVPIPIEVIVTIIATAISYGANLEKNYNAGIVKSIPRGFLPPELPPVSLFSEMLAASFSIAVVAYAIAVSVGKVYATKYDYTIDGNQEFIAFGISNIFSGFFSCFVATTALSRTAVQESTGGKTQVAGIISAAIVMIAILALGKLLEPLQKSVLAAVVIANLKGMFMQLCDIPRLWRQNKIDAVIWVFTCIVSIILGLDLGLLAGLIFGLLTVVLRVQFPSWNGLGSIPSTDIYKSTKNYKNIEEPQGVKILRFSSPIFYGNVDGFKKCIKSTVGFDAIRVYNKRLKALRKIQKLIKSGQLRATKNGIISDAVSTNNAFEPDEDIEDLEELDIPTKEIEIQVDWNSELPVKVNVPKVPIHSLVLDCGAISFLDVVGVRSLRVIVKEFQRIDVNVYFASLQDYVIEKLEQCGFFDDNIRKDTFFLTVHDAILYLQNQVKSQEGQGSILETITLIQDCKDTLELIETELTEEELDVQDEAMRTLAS
Kind of assay: Inhibition of pendrin in IL13-stimulated human bronchial epithelial cells assessed as reduction in gluconate gradient-induced intracellular alkalization at 25 uM. Type of assay: cell-based.

The species named for assay [3] is Homo sapiens. Put plainly: Effect on gluconate gradient-induced Cl(-) efflux in NHBE cells at 25 uM. Type of assay: functional, cell-based.
For assay [4], the species on record is Homo sapiens. Put plainly: Inhibition of potassium channel in human bronchial epithelial cells assessed as effect on short-circuit current at 25 uM pre-incubated for 30 mins.
For assay [5], the system named is Mus musculus. Put plainly: Potentiation of 20 mg/kg, ip bid for 8 days furosemide-induced chronic diuretic action in CD1 mouse assessed as increase in urine volume at 10 mg/kg, ip measured at 3 hrs relative to control. Type of assay: functional.

Activity calls are given as the source filed them. The rule behind the calls is not given here.

As for `Cc1n[nH]c(-c2cc(S(=O)(=O)NC3CCCc4ccccc43)c(C)s2)c1C` (configuration not stated), the outcome with Mus musculus [1] was inactive. Moreover, the inhibition entry at Pendrin (Mus musculus) was “Dose-dependent effect”.

As for `Cn1nc(COc2cccc(F)c2)c2c1CCN(C(=O)Nc1ccc(Cl)cc1)C2`, the inhibition result in the assay filed under Homo sapiens [2] and in the assay filed under Homo sapiens [4] was “inactive” in each case. For the same molecule, the inhibition result at Pendrin (Homo sapiens) was “Active”. For the same molecule, in the assay filed under Homo sapiens [3], the result was inactive. In addition, the Activity in the assay with Mus musculus [5] is on record as 60%.
